Assay results reported in patent US20240092799A1, “MNK INHIBITORS” (Hepagene Therapeutics (HK) Limited, priority 2020, published 2024).

Legend:
TMD-8 cell p-IF4E = assay: p-eIF4E Signaling Cellular Assay (CisBio HTRF) in TMD-8 cells; format: cell-based; settings: Homo sapiens, TMD8, 40 min, 40 min treatment
Description: p-eIF4E Signaling Cellular Assay. Phosphorylated eIF4E is assayed using the CisBio p-Eif4E HTRF assay kit. Reagents and equipment used in the assay are listed below, followed by the protocol.
Cell medium: RPMI 1640+10% FBS+1*PS, TMD-8 were cultured as recommended and assayed in exponential growth phase. • a) Plate 30 μL of cells in 384 white assay plate in appropriate medium and proper cell density (20 k/well) based on Optimization at 37° C. under 5% CO2 atmosphere • b) Dispense 90 nL of compounds diluted in DMSO and treat for 40 min at 37° C. under 5% CO2 atmosphere • c) Remove cell supernatant by flicking the plate • d) Add 16 μL of supplemented lysis buffer (1×) for 30 minutes at RT under shaking • e) Add 4 μL of premixed antibody solutions prepared in the detection buffer. Cover the plate with a plate sealer. Incubate 0/N at RT • f) Read the fluorescence emission at 665 nm and 620 nm on Envision • g) Data analysis • (1) Ratio […] signal is calculated for each well • (2) % Inhibition is calculated as follow:
% inhibition=100−(Signalcmpd-SignalAve_PC)/(SignalAve_VC-SignalAve_PC)×100. • (3) Calculate IC50 and Plot effect-dose curve of cmpds:
Calculate IC50 by fitting % Inhibition values and log of compound concentrations to nonlinear regression (dose response−variable slope) with Graphpad 8.0.
Y=Bottom+(Top−Bottom)/(1+10^((Log IC50−X)*Hill Slope)) • X: log of Inhibitor concentration; Y: % Inhibition.

MNK2 = MNK2 (Homo sapiens (Human), UniProt Q9HBH9); assay: MNK Biochemical Enzymatic Assay (ADP-Glo), MNK2 binding assay
Sequence of MNK2 (Q9HBH9 whole entry): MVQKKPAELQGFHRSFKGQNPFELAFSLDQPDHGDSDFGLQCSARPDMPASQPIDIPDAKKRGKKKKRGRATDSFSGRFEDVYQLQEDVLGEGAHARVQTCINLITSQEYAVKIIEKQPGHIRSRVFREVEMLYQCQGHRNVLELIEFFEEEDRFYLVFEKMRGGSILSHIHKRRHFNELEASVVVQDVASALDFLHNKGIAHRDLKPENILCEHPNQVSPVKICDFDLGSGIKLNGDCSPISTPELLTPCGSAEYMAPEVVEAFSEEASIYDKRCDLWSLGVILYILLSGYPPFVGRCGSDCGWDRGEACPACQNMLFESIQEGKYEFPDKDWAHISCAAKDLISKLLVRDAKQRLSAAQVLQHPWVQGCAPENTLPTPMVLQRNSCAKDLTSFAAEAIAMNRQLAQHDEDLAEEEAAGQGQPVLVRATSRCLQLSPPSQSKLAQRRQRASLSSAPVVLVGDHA
In short: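 Human MNK1 or MNK2 was preincubated with a 10-point, 1:3 serial dilution of compound for 15 min at 25 °C. Substrate was then added and the reaction ran 60 min at 25 °C. ADP formed was read by ADP-Glo luminescence, and IC50 came from non-linear regression.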

Structure (SMILES)	IC50 (TMD-8 cell p-IF4E) [µM]	IC50 (MNK2) [µM]
O=C1NC2(CCCCC2)c2cc(Nc3ncnc4c3CCN4)sc21 [Compound XXXI, 2′-((6,7-dihydro-5H-pyrrolo[2,3-d]pyrimidin-4-yl)amino)spiro[cyclohexane-1,4′-thieno[2,3-c]pyrrol]-6′(5′H)-one]	0.1 to 1	0.0001 to 0.01
O=C1NC2(CCCCC2)c2nc(Nc3ncnc4[nH]ccc34)sc21 [Compound XXVIII-A, 2′-((7H-pyrrolo[2,3-d]pyrimidin-4-yl)amino)spiro[cyclohexane-1,4′-pyrrolo[3,4-d]thiazol]-6′(5′H)-one]	0.0001 to 0.01	0.0001 to 0.01
O=C1NC2(CCCCC2)c2nc(Nc3cc(N[C@H]4CCOC4)ncn3)sc21 [Compound XXVIII, (S)-2′-((6-((tetrahydrofuran-3-yl)amino)pyrimidin-4-yl)amino)spiro[cyclohexane-1,4′-pyrrolo[3,4-d]thiazol]-6′(5′H)-one]	0.01 to 0.1	0.0001 to 0.01
COc1c(N)ncnc1Nc1cc2c(s1)C(=O)NC21CCCCC1 [Compound X-C, 2′-((6-amino-5-methoxypyrimidin-4-yl)amino)spiro[cyclohexane-1,4′-thieno[2,3-c]pyrrol]-6′(5′H)-one]	0.01 to 0.1	0.0001 to 0.01
O=C1NC2(CCCCC2)c2cc(Nc3cc(N[C@H]4CCCOC4)ncn3)sc21 [Compound XXIV-A, (S)-2′-((6-((tetrahydro-2H-pyran-3-yl)amino)pyrimidin-4-yl)amino)spiro[cyclohexane-1,4′-thieno[2,3-c]pyrrol]-6′(5′H)-one]	0.1 to 1	0.0001 to 0.01
Cc1cc(Nc2cc(Nc3ccn(C(F)(F)F)n3)ncn2)[n+]([O-])c2c1C(=O)NC21CCCCC1 [Compound XXIX-AF, 4′-methyl-5′-oxo-2′-[(6-{[1-(trifluoromethyl)pyrazol-3-yl]amino}pyrimidin-4-yl)amino]-6′H-spiro[cyclohexane-1,7′-pyrrolo[3,4-b]pyridin]-1′-ium-1′-olate]	0.0001 to 0.01	0.0001 to 0.01
CNC(=O)Nc1cc(Nc2nc3c(s2)C(=O)NC32CCCCC2)ncn1 [Compound XXVIII-L, 1-methyl-3-(6-((6′-oxo-5′,6′-dihydrospiro[cyclohexane-1,4′-pyrrolo[3,4-d]thiazol]-2′-yl)amino)pyrimidin-4-yl)urea]	0.1 to 1	0.0001 to 0.01
O=C1NC2(CCCCC2)c2cc(Nc3ncnc4[nH]cnc34)sc21 [Compound XVII, 2′-((9H-Purin-6-yl)amino)spiro[cyclohexane-1,4′-thieno[2,3-c]pyrrol]-6′(5′H)-one]	0.1 to 1	0.0001 to 0.01
Cc1cc(Nc2cc(Nc3ncc(F)cc3F)ncn2)[n+]([O-])c2c1C(=O)NC21CCCCC1 [Compound XXIX-AM, 2′-((6-((3,5-difluoropyridin-2-yl)amino)pyrimidin-4-yl)amino)-4′-methyl-5′-oxo-5′,6′-dihydrospiro[cyclohexane-1,7′-pyrrolo[3,4-b]pyridine] 1′-oxide]	0.01 to 0.1	0.0001 to 0.01
CC(=O)N(C)c1cccc(Nc2cc(Nc3cc(C)c4c([n+]3[O-])C3(CCCCC3)NC4=O)ncn2)n1 [Compound XXIX-AA, 4′-methyl-2′-((6-((6-(N-methylacetamido)pyridin-2-yl)amino)pyrimidin-4-yl)amino)-5′-oxo-5′,6′-dihydrospiro[cyclohexane-1,7′-pyrrolo[3,4-b]pyridine] 1′-oxide]	0.0001 to 0.01	0.0001 to 0.01
Cc1cc(Nc2cc(Nc3ccon3)ncn2)[n+]([O-])c2c1C(=O)NC21CCCCC1 [Compound XXIX-AAD, 2′-((6-(isoxazol-3-ylamino)pyrimidin-4-yl)amino)-4′-methyl-5′-oxo-5′,6′-dihydrospiro[cyclohexane-1,7′-pyrrolo[3,4-b]pyridine] 1′-oxide]	0.0001 to 0.01	0.0001 to 0.01
O=C1NC2(CCCCC2)c2cc(Nc3cc(NC4CCCC4)ncn3)sc21 [Compound XXIII-N, 2′-((6-(Cyclopentylamino)pyrimidin-4-yl)amino)spiro[cyclohexane-1,4′-thieno[2,3-c]pyrrol]-6′(5′H)-one]	0.01 to 0.1	0.01 to 0.1
CNC(=O)Nc1cc(Nc2cc3c(s2)C(=O)NC32CCCCC2)ncn1 [Compound XXIV-G, 1-methyl-3-(6-((6′-oxo-5′,6′-dihydrospiro[cyclohexane-1,4′-thieno[2,3-c]pyrrol]-2′-yl)amino)pyrimidin-4-yl)urea]	0.1 to 1	0.0001 to 0.01
C[C@@H]1COCCN1C(=O)C1CCc2c(sc3ncnc(Nc4cc5c(s4)C(=O)NC54CCCCC4)c23)C1 (stereo partly drawn) [Compound XXV-C, 2′-((7-((R)-3-Methylmorpholine-4-carbonyl)-5,6,7,8-tetrahydrobenzo[4,5]thieno[2,3-d]pyrimidin-4-yl)amino)spiro[cyclohexane-1,4′-thieno[2,3-c]pyrrol]-6′(5′H)-one]	0.1 to 1	0.01 to 0.1

The remaining lines, values ahead:

IC50 (TMD-8 cell p-IF4E) [µM]	IC50 (MNK2) [µM]	Structure (SMILES)
0.0001 to 0.01	0.0001 to 0.01	Cc1cc(Nc2cc(Nc3ccc(N4CCOCC4)cn3)ncn2)[n+]([O-])c2c1C(=O)NC21CCCCC1 [Compound XXIX-AAJ, 4′-methyl-2′-((6-((5-morpholinopyridin-2-yl)amino)pyrimidin-4-yl)amino)-5′-oxo-5′,6′-dihydrospiro[cyclohexane-1,7′-pyrrolo[3,4-b]pyridine] 1′-oxide]
0.01 to 0.1	0.0001 to 0.01	Cc1cc(Nc2cc(N[C@H]3C[C@@H](O)C3)ncn2)[n+]([O-])c2c1C(=O)NC21CCCCC1 [Compound XXIX-AP, 2′-((6-(((cis)-3-hydroxycyclobutyl)amino)pyrimidin-4-yl)amino)-4′-methyl-5′-oxo-5′,6′-dihydrospiro[cyclohexane-1,7′-pyrrolo[3,4-b]pyridine] 1′-oxide]
0.01 to 0.1	0.0001 to 0.01	Cc1cc(Nc2cc(N[C@@H]3COC[C@H]3O)ncn2)[n+]([O-])c2c1C(=O)NC21CCCCC1 (relative stereo) [Compound XXIX-AE, 2′-((6-((trans-4-hydroxytetrahydrofuran-3-yl)amino)pyrimidin-4-yl)amino)-4′-methyl-5′-oxo-5′,6′-dihydrospiro[cyclohexane-1,7′-pyrrolo[3,4-b]pyridine] 1′-oxide]
0.0001 to 0.01	0.0001 to 0.01	Cc1cc(Nc2cc(Nc3ccc(N4C[C@@H](C)N[C@@H](C)C4)cn3)ncn2)[n+]([O-])c2c1C(=O)NC21CCCCC1 [Compound XXIX-AAN, 2′-((6-((5-(cis-3,5-dimethylpiperazin-1-yl)pyridin-2-yl)amino)pyrimidin-4-yl)amino)-4′-methyl-5′-oxo-5′,6′-dihydrospiro[cyclohexane-1,7′-pyrrolo[3,4-b]pyridine]1′-oxide]
0.0001 to 0.01	0.0001 to 0.01	COc1c(N)ncnc1Nc1cc(C)c2c([n+]1[O-])C1(CCCCC1)NC2=O [Compound XXIX-Z, 2′-((6-amino-5-methoxypyrimidin-4-yl)amino)-4′-methyl-5′-oxo-5′,6′-dihydrospiro[cyclohexane-1,7′-pyrrolo[3,4-b]pyridine] 1′-oxide]
0.01 to 0.1	0.0001 to 0.01	Cc1cc(Nc2cc(NC(=O)C3CCCO3)ncn2)[n+]([O-])c2c1C(=O)NC21CCCCC1 (centres unmarked) [Compound XXIX-AW, 4′-methyl-5′-oxo-2′-((6-(tetrahydrofuran-2-carboxamido)pyrimidin-4-yl)amino)-5′,6′-dihydrospiro[cyclohexane-1,7′-pyrrolo[3,4-b]pyridine] 1′-oxide]
0.0001 to 0.01	0.0001 to 0.01	O=C1NC2(CCCCC2)c2cc(Nc3ncnc4[nH]c(C5CC5)cc34)sc21 [Compound XXXI-A, 2′-((6-cyclopropyl-7H-pyrrolo[2,3-d]pyrimidin-4-yl)amino)spiro[cyclohexane-1,4′-thieno[2,3-c]pyrrol]-6′(5′H)-one]
0.1 to 1	0.0001 to 0.01	O=C1NC2(CCCCC2)c2nc(Nc3cc(N[C@H]4C[C@@H](O)C4)ncn3)sc21 [Compound XXVIII-O, Cis-2′-((6-(((1s,3s)-3-hydroxycyclobutyl)amino)pyrimidin-4-yl)amino)spiro[cyclohexane-1,4′-pyrrolo[3,4-d]thiazol]-6′(5′H)-one]
0.01 to 0.1	0.0001 to 0.01	CC(=O)N(C)c1ccnc(Nc2cc(Nc3nc4c(s3)C(=O)NC43CCCCC3)ncn2)c1 [Compound XXVIII-P, N-methyl-N-(2-((6-((6′-oxo-5′,6′-dihydrospiro[cyclohexane-1,4′-pyrrolo[3,4-d]thiazol]-2′-yl)amino)pyrimidin-4-yl)amino)pyridin-4-yl)acetamide]
0.0001 to 0.01	0.0001 to 0.01	Cc1ccc(Nc2cc(Nc3cc(C)c4c([n+]3[O-])C3(CCCCC3)NC4=O)ncn2)nc1 [Compound XXIX-AAA, 4′-methyl-2′-((6-((5-methylpyridin-2-yl)amino)pyrimidin-4-yl)amino)-5′-oxo-5′,6′-dihydrospiro[cyclohexane-1,7′-pyrrolo[3,4-b]pyridine] 1′-oxide]
0.0001 to 0.01	0.0001 to 0.01	O=C1NC2(CCCCC2)c2nc(Nc3cc(Nc4ccc(N5CCOCC5)cn4)ncn3)sc21 [Compound XXVIII-Q, 2′-((6-((5-morpholinopyridin-2-yl)amino)pyrimidin-4-yl)amino)spiro[cyclohexane-1,4′-pyrrolo[3,4-d]thiazol]-6′(5′H)-one]
